These are literature values, as cited in patent US7718201B2, “Method of inducing liver phase II enzymes” (Access Business Group International LLC, priority 2005, dated 2010).

This series relates to quinone reductase in Hepa1c1c7 cells. The conditions noted are these: reference values; broccoli dependent on variety, form, extraction conditions.

With `C[S+]([O-])CCCCN=C=S` (stereo not shown) [sulforaphane], the “Phase II enzyme induction activity (reported)” value was 10^6 U/g.
